Results from patent US20030144347A1, “Method for treating autoimmune disease” (priority 2001, published 2003).

Legend:
Type in all cases: in vivo, human
[1] = tested on: patient with rapid mood swings and severe intense itching; test: Case report: patient with rapid mood swings and severe intense itching; settings: Example 19
Experimental: A patient presented with rapid mood swings and a complaint of severe intense itching from clothing tags and some clothing, which began over twenty years ago. They were begun on gabapenten which was increased to 300 mg qid. […] Their itching was unchanged. They were begun on Topamax 12.5 mg at bedtime which was increased weekly by 12.5 mg until 50 mg.

[2] = tested on: patient suffering from rheumatoid arthritis; test: Case reports: patients suffering from rheumatoid arthritis; settings: Example 17; before Topamax
Experimental: A patient suffering from rheumatoid arthritis was administered 25 mg per day of topiramate with an increase every 10 days by 25 mg until 25 mg, 3 times per day, was achieved. The patient previously took 3 or 4 tablets per day of lortab, seven 2.5 mg tablets of methotrexate once a week, 200 mg per day of minocycline and 10 mg per day of prednisone.
An adolescent patient suffering from rheumatoid arthritis began taking 15 mg per day of topiramate for one week, which was then increased by 15 mg weekly until 45 mg per day, in three divided dosages of 15 mg each, was reached. The patient previously took 3 to 5 mg of prednisone daily.
A patient suffering from rheumatoid arthritis with a positive rheumatic factor about 3 decades earlier, at which time they also experienced polyarthritis and Renaud's phenomena, was treated with prednisone 40 mg per day for six months and was then weaned off the prednisone after one year. In the ensuing years, psoriasis developed on both elbows which was worse in the winter. They were an avid golfer and experienced painful swelling and stiffness of both wrists and hands, especially the left, and back pain and stiffness. […] They were begun on Topamax 15 mg a day which was increased weekly by 15 mg until 45 mg per day was taken in divided doses.

[3] = tested on: patient suffering from multiple sclerosis; test: Case reports: patients suffering from multiple sclerosis treated with topiramate; settings: Example 18; patient's own attempt
Experimental: A patient suffering from multiple sclerosis was administered 15 mg per day of topiramate. The dosage was increased after 15 days to 30 mg per day. At 15 mg, the patient's involuntary stretch rigid response stopped and the patient was able to get out of bed without falling backward when their feet touched the floor for the first time in nine years.
The patient previously took trazadone 100 mg at bedtime, clonazepan 1 mg three times a day, citalapram 40 mg each morning, gabapentrin 600 mg four times a day, and synthroid 25 mcg per day for two years. They had refused steroids and interferon because of side effects.
The Topamax was increased to 15 mg at bedtime and they reported “no bad bladder accidents” and that their leg and foot cramps had disappeared. […] They were discharged on Topamax 15 mg at bedtime along with previous medications. The patient was much improved medically and emotionally.
The patient returned four weeks later walking with a cane, having worked “10 to 14 hours per day and exhausted from my move with little sleep during the past month”. They reported “insatiable itching all over my body wherever my clothes touch the skin” which […] unsuccessfully tried to treat with cetirizine. […] said […] felt “dizzy, weak, Charlie horses in arches of feet and toes, unable to stand for more than 10 minutes before starting to have gait problems, problems sleeping, having trouble mentally and urine leaking”. […] working diagnoses are Axis I Bipolar disorder, not otherwise specified Axis III multiple sclerosis. […]

NCC1(CC(=O)O)CCCCC1 [gabapenten]
mood ([1]; 300 mg qid): a little calmer | weight gained ([1]; 300 mg qid, in two weeks): five | itching ([1]; increased to 300 mg qid): unchanged

COc1ccc2cc([C@H](C)C(=O)O)ccc2c1 [Naproxen]
effect on painful swelling and stiffness [2]: ineffective

O=C(O)COCCN1CCN(C(c2ccccc2)c2ccc(Cl)cc2)CC1 (centres unmarked) [cetirizine]
treatment of itching [3]: unsuccessfully
